Data reported in paper PMC12114375, “Discovery of Hydrazineyl Amide Derivative of Pseudolaric Acid B for Reprogramming Tumor-Associated Macrophages Against Tumor Growth” (Molecules, 2025).
Read-outs that look alike come from different tables or passages of the source.

Experiments:
[1] = system: CD8+ T cell proliferation and activation suppressed by M2-like BMDMs; assay: CD8+ T cell suppression assay (BMDM / spleen cell co-culture); format: cell-based, mouse; settings: BMDMs pretreated 48 h, co-cultured 48 h with anti-CD3/CD28-stimulated spleen cells
Procedure: Pro-tumoral M2-like TAMs are well-known to directly suppress CD8^+ T cell proliferation and activation. When they were co-cultured with autologous spleen cells, as expected, the IL-4/IL-13-induced BMDMs suppressed the proliferation and activation of CD8^+ T cells.
Spleen cells were isolated from C57BL/6 mice, followed by red blood cell (RBC) lysis. BMDMs were induced into M2-like macrophages and treated with different concentrations of compound 1 for 48 h. Then, 2 × 10^5 spleen cells/well were stimulated with αCD3/αCD28 and co-cultured with 2 × 10^4 pro-treated BMDMs in 96-well plates in LCM (RPMI 1640 with […] 2-mercaptoethanol and 10% fetal bovine serum) at 37 °C. After 48 h, the spleen cells were treated with the eBioscience™ Cell Stimulation Cocktail (plus protein transport inhibitors) for 4 h, and cell activation was then determined by the proportion of IFNγ^+ CD8^+ T cells and GRZB^+ CD8^+ T cells in CD8^+ T cells measured using flow cytometry. Cell proliferation was determined by the proportion of Ki67^+ CD8^+ T cells in CD8^+ T cells using flow cytometry.
Figure 3 Compound 12 reverses macrophage-mediated CD8^+ T cell suppression. […] The ratios of Ki67^+ CD8^+ T cells (A), IFNγ^+ CD8^+ T cells, and granzyme B^+ CD8^+ T cells (B) in total CD8^+ T cells were assessed using flow cytometry. […]

[2] = system: NOS2 mRNA expression in RAW 264.7 cells; assay: qRT-PCR of NOS2 mRNA in IL-4/IL-13-stimulated RAW 264.7 cells; format: cell-based, mouse; settings: Mus musculus, RAW264.7, IL-4/IL-13 (20 ng/mL) plus compound 10 μM, 12 h, stimulated control = 100%, mean ± SD, read-out: NOS2 mRNA Relative Expression (%)
Text: We first investigated the impacts of a series of commercially available natural pseudolaric acids or their O-pyranosides (Figure 1) on the pro-tumoral phenotype of TAMs, which play a critical role in anti-tumor immune response modulation. […] In contrast, M1-biased macrophages combat tumor growth and bacterial infections by expressing inducible nitric oxide synthase 2 (NOS2), which catalyzes the production of nitric oxide (NO). Recognizing the pivotal roles of ARG1 and NOS2, we utilized these molecules as key biomarkers and effectors for assessing macrophage immune function. In our experiments, the mouse monocyte–macrophage leukemia cell line RAW 264.7 was induced with IL-4/IL-13 to acquire an M2-like pro-tumoral phenotype. Concurrently, the cells were treated with the pseudolaric acid-related natural products 1–7 at a concentration of 10 μM for 12 h. Additionally, PLX3397 was used as a positive control at a concentration of 0.5 μM. […] As shown in Table 1 and Figure S1A, pseudolaric acid B (1), its deacetoxyl analogue 2 (pseudolaric acid C), and β-D-glucoside 7 substantially attenuated the upregulation of ARG1 mRNA expression induced by IL-4/IL-13, with statistically significant effects. In contrast, bis-carboxylic acids analogs 4 (pseudolaric acid C2) and 6 (demethoxydeacetoxypseudolaric acid B) have no significant impact on ARG1 mRNA expression.
With these carboxylic acid-modified derivatives in hand, we investigated their impact at 10 μM on ARG1 and NOS2 mRNA expression in RAW 264.7 cells pre-stimulated with IL-4/IL-13 to evaluate the effects on the pro-tumor phenotype of macrophages. […] Further removal of one hydroxyl from the glycerol moiety 15 further enhanced the inhibitory effect on ARG1 expression but had no significant impact on NOS2 expression.
Total RNA was isolated from cells using the EZ-press RNA Purification Kit (EZBioscience, Suzhou, China) and subjected to reverse transcription with the 5×HiScript II qRT SuperMix II (Vazyme, Nanjing, China). PCR was performed with the 2×ChamQ Universal SYBR qPCR Master Mix (Vazyme, Nanjing, China). All primers for qRT-PCR are described in Table S1. The 2^−∆∆Ct method was utilized to calculate the fold change in gene expression, with the expression levels in the stimulated group set as the baseline for normalization.

[3] = system: Raw264.7 cells; assay: Cell viability (CCK-8) of RAW264.7 cells; format: cell-based, mouse; settings: IL-4/IL-13 plus compound 10 μM, 12 h
Procedure: Cells were seeded in 96-well tissue culture plates. On the next day, cells were exposed to various concentrations of compounds and further cultured for the indicated period. Finally, cell proliferation was determined by using the Cell Counting Kit (CCK-8) (Dojindo, Kumamoto, Japan) assay.
Figure S2. Effects of natural pseudolaric acids 1-4, 6 and their O-pyranosides 5, 7 as well as the derivatives 8-18 o f 1 on Raw264.7 cell viability. Raw264.7 cells were treated with IL-4/IL-13 alone or combined with indicated compounds (10 μM) for 12 h. After incubation, the cell viability was determined using a cell counting kit (CCK-8, Dojindo, Japan) assay.
(1 picture or pasted object on this page, not shown here)

[4] = In vivo pharmacokinetic study in mice; set-up: species or system ICR mice; settings: 1 mg/kg i.v., mean ± SD
Procedure: To investigate the druggability of compound 12, the pharmacokinetic (PK) properties of 12 were examined in mice. The mice were treated with 12 intravenously (i.v.) at a dose of 1 mg/kg, and the resulting PK parameters were recorded.
ICR mice (n = 3) were administered with the test compound via intravenous injection at 1 mg/kg. Blood samples were collected 0.083, 0.25, 0.5, 1, 2, 4, 8, and 24 h after administration. An aliquot of 10 μL of the plasma sample was deproteinized with 200 μL of a MeOH: ACN = 1: 1 solution containing an internal standard. After centrifugation, the supernatant was injected for LC–MS/MS analysis. A standard set of parameters, including the area under the curve (AUC0–∞), elimination half-life (T1/2), time to reach the maximum plasma concentration (Tmax), maximum plasma concentration (Cmax), plasma clearance (Cl), and mean residence time (MRT), were calculated using WinNonlin software.

COC(=O)C1=CC[C@@]23CC[C@@H]([C@@](C)(/C=C/C=C(\C)C(=O)NNCCO)OC2=O)[C@@]3(OC(C)=O)CC1 [compound 12, Methyl(3R,4S,4aS,9aR)-4a-acetoxy-3-((1E,3E)-5-(2-(2-hydroxyethyl)hydrazineyl)-4-methyl-5-oxopenta-1,3-dien-1-yl)-3-methyl-1-oxo-3,4,4a,5,6,9-hexahydro-1H-4,9a-ethanocyclohepta[c]pyran-7-carboxylate]
inhibitory effects of IL-4/IL-13-induced BMDMs on CD8+ T cell proliferation and activation (Ki67+, IFNγ+, GRZB+ CD8+ T cells) [1]: dose-dependently reversed
activity at 10 µM [2]: 182 ± 5.3%
cell viability [3]: no significant diminution in cell viability
Tmax ([4]; n = 3, 1 mg/kg): 5 ± 0 min
AUC(0-inf) ([4]; ICR, mouse, plasma, iv, n = 3): 363 ± 29.4 ng·h/mL
Cmax ([4]; ICR, mouse, plasma, iv, n = 3): 32.1 ± 11.7 ng/mL
clearance ([4]; ICR, mouse, plasma, iv, n = 3): 46.1 mL/min/kg
half-life ([4]; ICR, mouse, plasma, iv, n = 3): 40.2 ± 6.88 h
MRT inf ([4]; ICR, mouse, plasma, iv, n = 3, read-out: MRT0–∞): 63.1 ± 7.96 h
Tmax ([4]; ICR, mouse, plasma, iv, 1 mg/kg, n = 3, read-out: Tmax): 4.98 min
